2 compounds from ChEMBL document CHEMBL2440117, “Improved inhibitory activities against tumor-cell migration and invasion by 15-benzylidene substitution derivatives of andrographolide” (Bioorg Med Chem Lett, 2013) can be followed below.

The source made the active and inactive calls. The rule behind the calls is not given here.

The test system of experiment [1] is SGC-7901. Put plainly: Cytotoxicity against human SGC7901 cells assessed as growth inhibition at 10 uM after 48 hrs by MTT assay relative to control. It counts as functional, cell-based. In general terms: Formazan colour is commonly taken as a measure of viable cells.
The test system of experiment [2] is 5637. Description: Cytotoxicity against human 5637 cells assessed as growth inhibition at 10 uM after 48 hrs by MTT assay relative to control. It counts as functional, cell-based.
In experiment [3] the test system is 5637. Description: Antimigratory activity against human 5637 cells after 12 to 48 hrs by wound-healing assay. It counts as functional, cell-based.
Experiment [4] has as its system SGC-7901. Description: Antimigratory activity against human SGC7901 cells at 10 uM after 12 to 48 hrs by wound-healing assay relative to control. It counts as functional.
The subject of experiment [5] is PC-3. Put plainly: Antimigratory activity against human PC3 cells at 10 uM after 12 to 48 hrs by wound-healing assay relative to control. The format is functional.
For experiment [6], the system named is PC-3. Put plainly: Cytotoxicity against human PC3 cells assessed as growth inhibition at 10 uM after 48 hrs by MTT assay relative to control. It counts as functional.
Experiment [7] relates to HT-29. Put plainly: Cytotoxicity against human HT-29 cells assessed as growth inhibition at 10 uM after 48 hrs by MTT assay. The format is functional, cell-based.
Experiment [8] has as its system A549. Description: Cytotoxicity against human A549 cells assessed as growth inhibition at 10 uM after 48 hrs by MTT assay. It counts as functional, cell-based.
Experiment [9] has as its system 5637. Description: Antimigratory activity against human 5637 cells at 10 uM after 12 to 48 hrs by wound-healing assay relative to control. The format is functional.
A further experiment has as its system ECa-109. Description: Cytotoxicity against human EC109 cells assessed as growth inhibition at 10 uM after 48 hrs by MTT assay. It counts as functional, cell-based.
The subject of experiment [10] is HT-29. Description: Antimigratory activity against human HT-29 cells after 12 to 48 hrs by wound-healing assay. It counts as functional, cell-based.
The test system of experiment [11] is A549. Put plainly: Antimigratory activity against human A549 cells at 5 uM after 12 to 48 hrs by wound-healing assay relative to control. The format is functional.
Experiment [12] can be described thus: Antimigratory activity against human EC109 cells at 5 uM after 12 to 48 hrs by wound-healing assay relative to control. The format is functional. Conditions: ECa-109.
Experiment [13] deals with PC-3. Description: Antimigratory activity against human PC3 cells after 12 to 48 hrs by wound-healing assay. The format is functional, cell-based.

As a reminder, the IC50 is the concentration that inhibits the measured activity by half. In general, inhibition refers to the relative decrease from the control value, in per cent. Consider `C=C1CC[C@@H]2[C@](C)(COC(=O)c3cccnc3)[C@H](OC(=O)c3cccnc3)CC[C@@]2(C)[C@@H]1/C=C/C1=CC(=C/c2ccc(Cl)cc2)/OC1=O`, for which the “growth inhibition (GI)” value with SGC-7901 [1], with 5637 [2] and in the experiment with PC-3 [6] was “inactive” in each case. In addition, in the experiment on 5637 [3], the IC50 came to 8.1 µM. The compound also displayed an inhibition at 10 µM with SGC-7901 [4] of 22.3%. For the same compound, the inhibition entry in the experiment with PC-3 [5] was “inactive”.
As for `C=C1CC[C@@H]2[C@](C)(CO)[C@H](O)CC[C@@]2(C)[C@@H]1/C=C/C1=CC(=C/c2ccccc2)/OC1=O`, the “growth inhibition (GI)” value in the experiment on HT-29 [7], with A549 [8], in the experiment on SGC-7901 [1], with 5637 [2], with ECa-109 and with PC-3 [6] was “inactive” throughout. For the same compound, the inhibition at 10 µM in the experiment with 5637 [9] came out at 44.8%; in the experiment on SGC-7901 [4], 30.3%. In addition, the IC50 in the experiment on HT-29 [10] turned out to be 48.4 µM; with PC-3 [13] it was 13.2 µM. The inhibition at 5 µM in the experiment with A549 [11] was determined as 45.1%; in experiment [12], 45.3%.
